Experimental data reported in patent US12252524B2, “GIP/GLP1 co-agonist compounds” (Eli Lilly and Company, priority 2018, dated 2025).
Numbered stars: 1 amine (or outer) side, 2 acyl side, 3 side chain; on linkers, the order of the positions; unused ones are H or OH. Square brackets hold non-standard residues; d marks the D form. Side chains are listed from the residue outwards. Peptide text beside a SMILES is read from it. * marks the point of attachment. C18 diacid = O=C(O)CCCCCCCCCCCCCCCCC(=O)*; αMePhe(2-F) = C[C@](N)(Cc1ccccc1F)C(=O)O; γGlu = O=C(O)[C@H](CCC(=O)[*:2])N[*:1]; αMeF = C[C@](N)(Cc1ccccc1)C(=O)O; AEEA = NCCOCCOCC(=O)O; Aib = CC(C)(N)C(=O)O

How the values were obtained:
[1] = molecular target: T1, human Gcg receptor (Homo sapiens, UniProt P47871); assay: [125I]-Glucagon binding (SPA), human Gcg receptor; details: read-out: hGLcgR Ki, nM (SEM, n)
T1 construct: expressed in transfected cells; crude membranes
In short: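 Cell pellets were lysed in hypotonic Tris buffer, pH 7.5, homogenized, and spun at low then high speed to give crude membranes. Ki was derived from the fitted IC50.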

[2] = molecular target: T2, human GIP receptor (Homo sapiens, UniProt P48546); assay: [125I]-GIP binding (SPA), human GIP receptor; details: read-out: hGIPR Ki, nM (SEM, n)
T2 construct: expressed in transfected cells; crude membranes
T2 sequence (P48546 22-466): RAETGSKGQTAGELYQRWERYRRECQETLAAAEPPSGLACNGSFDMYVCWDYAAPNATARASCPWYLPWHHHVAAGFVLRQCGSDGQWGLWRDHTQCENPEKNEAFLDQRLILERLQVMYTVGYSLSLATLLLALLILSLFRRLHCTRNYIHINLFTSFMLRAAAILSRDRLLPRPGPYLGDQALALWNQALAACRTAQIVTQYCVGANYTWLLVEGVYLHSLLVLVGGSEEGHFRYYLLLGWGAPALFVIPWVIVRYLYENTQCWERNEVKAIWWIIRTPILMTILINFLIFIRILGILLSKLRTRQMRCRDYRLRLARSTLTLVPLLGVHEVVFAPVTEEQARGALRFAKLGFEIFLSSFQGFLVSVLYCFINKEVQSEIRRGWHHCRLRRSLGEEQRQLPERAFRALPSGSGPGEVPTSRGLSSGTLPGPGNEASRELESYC

[3] = molecular target: human GLP-1 receptor (GLP-1R) (Homo sapiens, UniProt P43220); assay: cAMP pharmacological functional assay in presence of casein, hGLP-1R; assay type: cell-based; details: HEK293 cells expressing hGLP-1R, 0.1% Casein, geometric mean; read-out: hGLP1R cAMP Rel EC50 nM (SEM, n)
[4] = molecular target: T3, gastric inhibitory peptide receptor (GIPR) (Homo sapiens, UniProt P48546); assay: cAMP pharmacological functional assay in presence of casein, hGIPR; assay type: cell-based; details: HEK293 cells expressing hGIPR, 0.1% Casein, geometric mean; read-out: hGIPR cAMP Rel EC50 nM (SEM, n)
T3 sequence (P48546 22-466): T2 sequence (P48546 22-466)

[5] = molecular target: human GLP-1R (Homo sapiens, UniProt P43220); assay: [125I]-GLP-1 binding (SPA), human GLP-1 receptor; set-up: expressed in transfected cells; crude membranes; details: read-out: hGLP1R Ki, (nM) (SEM, n)
In short: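 Frozen cell pellets are lysed on ice in hypotonic Tris buffer, pH 7.5, homogenized, and centrifuged to a membrane pellet resuspended at about 1 to 3 mg/mL. Binding is then measured in HEPES-based buffer at pH 7.4, and curves are fitted to give IC50 and Ki.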

T1 sequence (P47871 26-477): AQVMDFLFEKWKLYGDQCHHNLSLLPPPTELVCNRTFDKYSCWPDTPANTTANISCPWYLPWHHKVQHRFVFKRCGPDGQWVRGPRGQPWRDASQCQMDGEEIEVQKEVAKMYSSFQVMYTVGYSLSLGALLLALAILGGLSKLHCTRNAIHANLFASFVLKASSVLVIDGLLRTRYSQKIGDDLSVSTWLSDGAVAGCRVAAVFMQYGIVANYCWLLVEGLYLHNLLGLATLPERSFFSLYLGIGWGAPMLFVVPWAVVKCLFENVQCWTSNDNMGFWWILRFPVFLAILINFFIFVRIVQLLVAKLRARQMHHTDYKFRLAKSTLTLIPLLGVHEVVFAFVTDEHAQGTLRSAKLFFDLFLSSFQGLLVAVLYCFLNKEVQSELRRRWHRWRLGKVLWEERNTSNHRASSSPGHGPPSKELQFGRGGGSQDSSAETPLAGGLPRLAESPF
Sequence of human GLP-1 receptor (GLP-1R) (P43220 24-463): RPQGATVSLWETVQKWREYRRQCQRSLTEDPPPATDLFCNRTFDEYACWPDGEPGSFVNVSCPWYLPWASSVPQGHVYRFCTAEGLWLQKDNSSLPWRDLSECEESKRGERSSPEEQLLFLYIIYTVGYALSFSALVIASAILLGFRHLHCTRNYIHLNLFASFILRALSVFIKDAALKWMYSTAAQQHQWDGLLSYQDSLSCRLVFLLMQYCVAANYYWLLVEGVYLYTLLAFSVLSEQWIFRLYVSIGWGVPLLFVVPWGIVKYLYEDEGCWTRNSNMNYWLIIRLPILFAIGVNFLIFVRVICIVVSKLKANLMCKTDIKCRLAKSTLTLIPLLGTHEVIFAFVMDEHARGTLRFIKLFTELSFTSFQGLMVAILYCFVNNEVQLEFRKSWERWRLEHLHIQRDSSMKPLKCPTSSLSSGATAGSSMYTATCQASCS
Sequence of human GLP-1R (P43220 24-463): as above

Compound | Ki [1] [nM] | Ki [2] [nM] | EC50 [3] [nM] | EC50 [4] [nM] | Ki [5] [nM]
CC[C@H](C)[C@H](NC(=O)[C@H](CC(C)C)NC(=O)[C@H](Cc1ccc(O)cc1)NC(=O)[C@H](CCC(=O)O)NC(=O)[C@@H](NC(=O)[C@H](Cc1ccccc1)NC(=O)[C@H](C)NC(=O)C(C)(C)NC(=O)[C@H](CCC(N)=O)NC(=O)[C@H](C)NC(=O)[C@H](CCCCNC(=O)COCCOCCNC(=O)COCCOCCNC(=O)CC[C@H](NC(=O)CCCCCCCCCCCCCCCCC(=O)O)C(=O)O)NC(=O)[C@H](CCC(=O)O)NC(=O)[C@H](CC(=O)O)NC(=O)[C@H](CC(C)C)NC(=O)[C@H](CC(C)C)NC(=O)[C@@H](NC(=O)[C@H](CO)NC(=O)[C@H](Cc1ccc(O)cc1)NC(=O)[C@H](CC(=O)O)NC(=O)[C@H](CO)NC(=O)[C@@H](NC(=O)[C@](C)(Cc1ccccc1F)NC(=O)[C@@H](NC(=O)CNC(=O)[C@H](CCC(=O)O)NC(=O)C(C)(C)NC(=O)[C@@H](N)Cc1ccc(O)cc1)[C@@H](C)O)[C@@H](C)O)[C@@H](C)CC)[C@@H](C)CC)C(=O)N[C@@H](CCC(=O)O)C(=O)NCC(=O)NCC(=O)N1CCC[C@H]1C(=O)N[C@@H](CO)C(=O)N[C@@H](CO)C(=O)NCC(N)=O [Example 311] (H-Y[Aib]EGT[αMePhe(2-F)]TSDYSILLDEK([AEEA-AEEA-γGlu-C18 diacid])AQ[Aib]AFIEYLIEGGPSSG-NH2) | 115 | 0.0497 | 0.0393 | 0.0334 | 11.5
CC[C@H](C)[C@H](NC(=O)[C@H](CC(C)C)NC(=O)[C@H](Cc1ccc(O)cc1)NC(=O)[C@H](CCC(=O)O)NC(=O)[C@@H](NC(=O)[C@H](Cc1ccccc1)NC(=O)[C@H](CCC(=O)O)NC(=O)C(C)(C)NC(=O)[C@H](CCC(N)=O)NC(=O)[C@H](C)NC(=O)[C@H](CCCCNC(=O)COCCOCCNC(=O)COCCOCCNC(=O)CC[C@H](NC(=O)CCCCCCCCCCCCCCCCC(=O)O)C(=O)O)NC(=O)[C@H](CCCCN)NC(=O)[C@H](CC(=O)O)NC(=O)[C@H](CC(C)C)NC(=O)[C@H](CC(C)C)NC(=O)[C@@H](NC(=O)[C@H](CO)NC(=O)[C@H](Cc1ccc(O)cc1)NC(=O)[C@H](CC(=O)O)NC(=O)[C@H](CO)NC(=O)[C@@H](NC(=O)[C@](C)(Cc1ccccc1F)NC(=O)[C@@H](NC(=O)CNC(=O)[C@H](CCC(=O)O)NC(=O)C(C)(C)NC(=O)[C@@H](N)Cc1ccc(O)cc1)[C@@H](C)O)[C@@H](C)O)[C@@H](C)CC)[C@@H](C)CC)C(=O)N[C@@H](CCC(=O)O)C(=O)NCC(=O)NCC(=O)N1CCC[C@H]1C(=O)N[C@@H](CO)C(=O)N[C@@H](CO)C(=O)NCC(N)=O [Example 312] (H-Y[Aib]EGT[αMePhe(2-F)]TSDYSILLDKK([AEEA-AEEA-γGlu-C18 diacid])AQ[Aib]EFIEYLIEGGPSSG-NH2) | 106 | 0.0348 | 0.0262 | 0.0207 | 1.63
CC[C@H](C)[C@H](NC(=O)[C@H](CC(C)C)NC(=O)[C@H](Cc1ccc(O)cc1)NC(=O)[C@H](CCC(=O)O)NC(=O)[C@@H](NC(=O)[C@H](Cc1ccccc1)NC(=O)[C@H](C)NC(=O)C(C)(C)NC(=O)[C@H](CCC(N)=O)NC(=O)[C@H](C)NC(=O)[C@H](CCCCNC(=O)COCCOCCNC(=O)COCCOCCNC(=O)CC[C@H](NC(=O)CCCCCCCCCCCCCCCCC(=O)O)C(=O)O)NC(=O)[C@H](CCCCN)NC(=O)[C@H](CC(=O)O)NC(=O)[C@H](CC(C)C)NC(=O)[C@H](CC(C)C)NC(=O)[C@@H](NC(=O)[C@H](CO)NC(=O)[C@H](Cc1ccc(O)cc1)NC(=O)[C@H](CC(=O)O)NC(=O)[C@H](CO)NC(=O)[C@@H](NC(=O)[C@](C)(Cc1ccccc1F)NC(=O)[C@@H](NC(=O)CNC(=O)[C@H](CCC(=O)O)NC(=O)C(C)(C)NC(=O)[C@@H](N)Cc1ccc(O)cc1)[C@@H](C)O)[C@@H](C)O)[C@@H](C)CC)[C@@H](C)CC)C(=O)N[C@@H](C)C(=O)NCC(=O)NCC(=O)N1CCC[C@H]1C(=O)N[C@@H](CO)C(=O)N[C@@H](CO)C(=O)NCC(N)=O [Example 313] (H-Y[Aib]EGT[αMePhe(2-F)]TSDYSILLDKK([AEEA-AEEA-γGlu-C18 diacid])AQ[Aib]AFIEYLIAGGPSSG-NH2) | 27.6 | 0.0261 | 0.0388 | 0.0233 | 0.815

More lines, now with the values ahead:

Ki [1] [nM] | Ki [2] [nM] | EC50 [3] [nM] | EC50 [4] [nM] | Ki [5] [nM] | Compound
174 | 0.0315 | 0.0283 | 0.0176 | 1.7 | CC[C@H](C)[C@H](NC(=O)[C@H](CC(C)C)NC(=O)[C@H](Cc1ccc(O)cc1)NC(=O)[C@H](CCC(=O)O)NC(=O)[C@@H](NC(=O)[C@H](Cc1ccccc1)NC(=O)[C@H](CCC(=O)O)NC(=O)C(C)(C)NC(=O)[C@H](CCC(N)=O)NC(=O)[C@H](C)NC(=O)[C@H](CCCCNC(=O)COCCOCCNC(=O)COCCOCCNC(=O)CC[C@H](NC(=O)CCCCCCCCCCCCCCCCC(=O)O)C(=O)O)NC(=O)[C@H](CCCCN)NC(=O)[C@H](CC(=O)O)NC(=O)[C@H](CC(C)C)NC(=O)[C@H](CC(C)C)NC(=O)[C@@H](NC(=O)[C@H](CO)NC(=O)[C@H](Cc1ccc(O)cc1)NC(=O)[C@H](CC(=O)O)NC(=O)[C@H](CO)NC(=O)[C@@H](NC(=O)[C@](C)(Cc1ccccc1)NC(=O)[C@@H](NC(=O)CNC(=O)[C@H](CCC(=O)O)NC(=O)C(C)(C)NC(=O)[C@@H](N)Cc1ccc(O)cc1)[C@@H](C)O)[C@@H](C)O)[C@@H](C)CC)[C@@H](C)CC)C(=O)N[C@@H](C)C(=O)NCC(=O)NCC(=O)N1CCC[C@H]1C(=O)N[C@@H](CO)C(=O)N[C@@H](CO)C(=O)NCC(N)=O [Example 310] (H-Y[Aib]EGT[αMeF]TSDYSILLDKK([AEEA-AEEA-γGlu-C18 diacid])AQ[Aib]EFIEYLIAGGPSSG-NH2; N-terminus assumed)
116 | 0.027 | 0.029 | 0.029 | 0.717 | CC[C@H](C)[C@H](NC(=O)[C@H](CC(C)C)NC(=O)[C@H](Cc1ccc(O)cc1)NC(=O)[C@H](CCC(=O)O)NC(=O)[C@@H](NC(=O)[C@H](Cc1ccccc1)NC(=O)[C@H](CCC(=O)O)NC(=O)C(C)(C)NC(=O)[C@H](CCC(N)=O)NC(=O)[C@H](C)NC(=O)[C@H](CCCCNC(=O)COCCOCCNC(=O)COCCOCCNC(=O)CC[C@H](NC(=O)CCCCCCCCCCCCCCCCC(=O)O)C(=O)O)NC(=O)[C@H](CCCCN)NC(=O)[C@H](CC(=O)O)NC(=O)[C@H](CC(C)C)NC(=O)[C@H](CC(C)C)NC(=O)[C@@H](NC(=O)[C@H](CO)NC(=O)[C@H](Cc1ccc(O)cc1)NC(=O)[C@H](CC(=O)O)NC(=O)[C@H](CO)NC(=O)[C@@H](NC(=O)[C@](C)(Cc1ccccc1F)NC(=O)[C@@H](NC(=O)CNC(=O)[C@H](CCC(=O)O)NC(=O)C(C)(C)NC(=O)[C@@H](N)Cc1ccc(O)cc1)[C@@H](C)O)[C@@H](C)O)[C@@H](C)CC)[C@@H](C)CC)C(=O)N[C@@H](C)C(=O)NCC(=O)NCC(=O)N1CCC[C@H]1C(=O)N[C@@H](CO)C(=O)N[C@@H](CO)C(=O)NCC(N)=O [Example 314] (H-Y[Aib]EGT[αMePhe(2-F)]TSDYSILLDKK([AEEA-AEEA-γGlu-C18 diacid])AQ[Aib]EFIEYLIAGGPSSG-NH2)
> 1040 | 0.136 | 0.397 | 0.161 | 5.17 | CC[C@H](C)[C@H](NC(=O)[C@H](CC(C)C)NC(=O)[C@H](Cc1ccc(O)cc1)NC(=O)[C@H](CCC(=O)O)NC(=O)[C@@H](NC(=O)[C@H](Cc1ccccc1)NC(=O)[C@H](CC(=O)O)NC(=O)C(C)(C)NC(=O)[C@H](CCC(N)=O)NC(=O)[C@H](C)NC(=O)[C@H](CCCCNC(=O)COCCOCCNC(=O)COCCOCCNC(=O)CC[C@H](NC(=O)CCCCCCCCCCCCCCCCC(=O)O)C(=O)O)NC(=O)[C@H](CCCCN)NC(=O)[C@H](CC(=O)O)NC(=O)[C@H](CC(C)C)NC(=O)[C@H](CC(C)C)NC(=O)[C@@H](NC(=O)[C@H](CO)NC(=O)[C@H](Cc1ccc(O)cc1)NC(=O)[C@H](CC(=O)O)NC(=O)[C@H](CO)NC(=O)[C@@H](NC(=O)[C@H](Cc1ccccc1)NC(=O)[C@@H](NC(=O)CNC(=O)[C@H](CCC(=O)O)NC(=O)C(C)(C)NC(=O)[C@@H](N)Cc1ccc(O)cc1)[C@@H](C)O)[C@@H](C)O)[C@@H](C)CC)[C@@H](C)CC)C(=O)N[C@@H](CCC(=O)O)C(=O)NCC(=O)NCC(=O)N1CCC[C@H]1C(=O)N[C@@H](CO)C(=O)N[C@@H](CO)C(=O)NCC(N)=O [Example 320] (H-Y[Aib]EGTFTSDYSILLDKK([AEEA-AEEA-γGlu-C18 diacid])AQ[Aib]DFIEYLIEGGPSSG-NH2; N-terminus assumed)
